{"source": "patent US20070196866A1", "about": "“Modulators of ion channel trpa1” (IRM LLC, priority 2004, published 2007)", "key": {"[1]": {"assay": "Nociceptive behavior after intraplantar injection in mice", "type": "in vivo", "settings": "wildtype mice, intraplantar, five minutes post-injection; cinnamaldehyde 5 mM and 16.4 mM"}, "mTRPA1 [2]": {"target": "T1, mTRPA1 (Mus musculus, UniProt Q8BLA8)", "T1 construct": "expressed in transfected cells; host or cells: CHO cells", "T1 sequence (Q8BLA8 whole entry)": "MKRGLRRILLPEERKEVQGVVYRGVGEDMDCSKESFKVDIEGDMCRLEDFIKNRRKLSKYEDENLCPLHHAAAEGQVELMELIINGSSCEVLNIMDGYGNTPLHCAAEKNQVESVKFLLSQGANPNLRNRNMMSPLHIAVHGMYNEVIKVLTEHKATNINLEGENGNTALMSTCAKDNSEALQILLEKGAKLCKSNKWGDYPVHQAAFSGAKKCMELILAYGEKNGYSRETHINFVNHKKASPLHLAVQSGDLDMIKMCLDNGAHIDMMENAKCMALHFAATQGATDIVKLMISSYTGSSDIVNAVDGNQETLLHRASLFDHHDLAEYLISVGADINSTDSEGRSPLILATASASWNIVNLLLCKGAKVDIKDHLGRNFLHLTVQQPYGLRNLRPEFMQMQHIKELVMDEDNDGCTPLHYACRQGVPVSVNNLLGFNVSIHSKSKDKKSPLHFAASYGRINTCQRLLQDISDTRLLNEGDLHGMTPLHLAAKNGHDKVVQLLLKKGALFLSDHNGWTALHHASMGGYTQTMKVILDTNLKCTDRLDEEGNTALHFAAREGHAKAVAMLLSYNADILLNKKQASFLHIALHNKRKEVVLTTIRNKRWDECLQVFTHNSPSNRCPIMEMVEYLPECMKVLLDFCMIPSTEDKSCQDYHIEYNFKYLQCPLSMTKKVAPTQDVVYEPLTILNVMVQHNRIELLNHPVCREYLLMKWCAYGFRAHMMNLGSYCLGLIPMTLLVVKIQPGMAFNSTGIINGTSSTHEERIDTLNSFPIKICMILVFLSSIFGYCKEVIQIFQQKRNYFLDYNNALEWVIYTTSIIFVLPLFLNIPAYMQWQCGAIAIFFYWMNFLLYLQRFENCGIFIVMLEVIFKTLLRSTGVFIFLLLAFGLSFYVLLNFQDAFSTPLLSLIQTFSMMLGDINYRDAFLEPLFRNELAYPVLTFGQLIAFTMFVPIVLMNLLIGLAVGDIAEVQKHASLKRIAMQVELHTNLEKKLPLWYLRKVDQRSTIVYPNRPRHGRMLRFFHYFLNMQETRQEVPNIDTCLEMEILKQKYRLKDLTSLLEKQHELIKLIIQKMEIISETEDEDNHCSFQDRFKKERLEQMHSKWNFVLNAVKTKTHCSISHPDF", "assay": "Screen of cinnamaldehyde-like compounds in heterologous expression systems", "type": "cell-based", "settings": "even in millimolar concentrations"}, "TRPV1 [3]": {"tested_on": "TRPV1", "assay": "FLIPR calcium assay, TRPV1-expressing CHO cells", "type": "cell-based", "settings": "2 mM", "source_text": "We then tested these compounds against TRPM8 and TRPV1."}, "mouse TRPA1": {"target": "T2, mouse TRPA1 (Mus musculus, UniProt Q8BLA8)", "T2 construct": "expressed in transfected cells; host or cells: CHO cells", "T2 sequence (Q8BLA8 whole entry)": "as above", "assay": "FLIPR intracellular calcium assay, mouse TRPA1-expressing CHO cells", "type": "cell-based"}, "naïve CHO cells": {"tested_on": "naïve CHO cells", "assay": "Calcium response of naive CHO cells", "type": "cell-based", "settings": "alone", "source_text": "Another downstream effect of PLC activity is the generation of Diacylglycerol (DAG). Therefore, we tested if l-Oleoyl-2-acetyl-sn-glycerol (OAG, a cell permeable analog of DAG) could activate TRPA1. […] OAG alone gives no response in naïve CHO cells. DAG can be converted to poly-unsaturated fatty acid (PUFAs) such as arachidonic acid (AA). […] AA can be converted to numerous metabolites, including prostaglandins. […] However, such a compound named 5,8,11,14-Eicosatetraynoic acid (ETYA) activated TRPA1- expressing CHO cells. Therefore, AA metabolism is not required for the activation of TRPA1."}, "mTRPA1 [4]": {"target": "T1, mTRPA1", "assay": "Ratiometric calcium imaging of CHO cells expressing mTRPA1", "type": "cell-based"}, "TRPA1 [5]": {"target": "T3, TRPA1 (Homo sapiens, UniProt O75762)", "assay": "Electrophysiological recording of TRPA1-expressing oocytes", "type": "cell-based", "design": "expressed in transfected cells; host or cells: oocytes", "settings": "1 μM"}, "TRPA1 [6]": {"target": "T3, TRPA1", "assay": "FLIPR dose response, hTRPA1", "type": "cell-based", "design": "expressed in transfected cells"}, "adult rat DRG neurons": {"tested_on": "adult rat DRG neurons", "assay": "Calcium imaging of cultured adult rat DRG neurons", "type": "cell-based", "source_text": "To further test this hypothesis, and to find out if the pungent compounds described above activate TRPA1 specifically, we performed calcium imaging of adult rat DRG neurons in response to cold, menthol, cinnamaldehyde, allyl isothiocyanate, and bradykinin. […] To a large extent, cinnamaldehyde and menthol activated mutually exclusive populations of cold-responsive neurons, as our model would predict. Allyl isothiocyanate appeared less specific as it activated 63% of the cold-responsive population (including a large overlap with menthol) and 12% of the cold-insensitive population. We have used 1.6 times the EC50 values of cinnamaldehyde and allyl isothiocyanate to enable us to directly compare DRG response profiles to these compounds. […] There were no significant differences in profiles of cinnamaldehyde and allyl isothiocyanate between cultures in the presence of 1 and 100 ng/ml of NGF.\nIn addition to the pungent sensory compounds, we have shown that BK can activate TRPA1.\nTo test if garlic extracts and allicin specifically activate TRPA1 in native neurons, we performed calcium imaging of adult rat DRG neurons. […] Addition of allicin or garlic extract to cultured rat DRG neurons activated a specific population of neurons."}, "TRPV1 [7]": {"tested_on": "TRPV1", "assay": "Calcium imaging of TRPV1-expressing CHO cells", "type": "cell-based"}}, "data": [{"compound": "O=C(O)C=Cc1ccccc1", "note": "[Cinnamic acid, reference compound]", "values": [{"measurement": "licking and shaking of the injected hindpaw", "setting": "[1]", "result": "not observed"}, {"measurement": "activation of mTRPA1", "setting": "mTRPA1 [2]", "result": "did not activate"}]}, {"compound": "COC(=O)c1ccccc1O", "note": "[Methyl salicylate]", "values": [{"measurement": "activation of TRPV1-expressing cells, relative to TRPV1 response from saturating amounts of capsaicin", "setting": "TRPV1 [3]", "result": 25, "unit": "%"}, {"measurement": "specificity to mTRPA1 when tested against TRPM8 and TRPV1", "setting": "mouse TRPA1; 600 μM", "result": "specific to mTRPA1"}, {"measurement": "increase in intracellular calcium upon application", "setting": "mouse TRPA1; FLIPR, mTRPA1 CHO cells", "result": "sharp increase in intracellular calcium"}]}, {"compound": "CCCCCCCC/C=C\\CCCCCCCC(=O)OC[C@H](CO)OC(C)=O", "note": "[OAG, l-Oleoyl-2-acetyl-sn-glycerol]", "values": [{"measurement": "response in naïve CHO cells", "setting": "naïve CHO cells", "result": "no response"}, {"measurement": "activation of mTRPA1/TRPA1-expressing CHO cells", "setting": "mTRPA1 [4]", "result": "robust response"}]}, {"compound": "C=CCS[S+]([O-])CC=C", "note": "(stereo not drawn) [allicin, diallyl disulfide oxide]", "values": [{"measurement": "activation of TRPA1-expressing oocytes", "setting": "TRPA1 [5]", "result": "able to activate"}, {"measurement": "EC50", "setting": "TRPA1 [6]", "result": 1910, "unit": "nM"}, {"measurement": "response of capsaicin-insensitive neurons", "setting": "adult rat DRG neurons", "result": "never responded"}, {"measurement": "DRG neuron population activated at high concentrations", "setting": "adult rat DRG neurons; dilution 1:50 for garlic, 100 μM allicin", "result": "activated the majority of capsaicin-sensitive DRG neurons"}, {"measurement": "DRG neuron population activated at low concentrations", "setting": "adult rat DRG neurons; dilution 1:500 for garlic, 10 μM allicin", "result": "activated only the cinnamaldehyde-sensitive neurons"}, {"measurement": "EC50", "setting": "mouse TRPA1; FLIPR, mTRPA1, read-out: concentration for half maximal activation (EC50)", "result": 1320, "unit": "nM"}, {"measurement": "calcium response of TRPV1-expressing CHO cells", "setting": "TRPV1 [7]", "result": "immediate and strong calcium response"}, {"measurement": "calcium response of TRPA1-expressing CHO cells", "setting": "mTRPA1 [4]", "result": "immediate and strong calcium response"}]}]}
